IC50 data for 46 molecules are collected here from patent publication US12410179B2, “Modulators of TNF alpha activity and uses thereof” (RayThera, Inc., priority 2023, dated 2025).

SMILES strings stand for the structures.

The target in this experiment is TNFα (Homo sapiens, UniProt P01375). Put plainly: HEK-Blue hTNFα reporter assay. Set-up: purchased R&D biosystem (R&D Systems) 210-TA-020/CF. Format: cell-based. The settings on record: HEK-Blue hTNFα reporter cells, SEAP readout; read-out: IC50 Range. The method in brief: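 Compounds preincubated 1 h at 37 °C with recombinant hTNFα ([…]), then added to HEK293 NF-κB-SEAP reporter cells, 10000 cells/well, 24 h at 37 °C. SEAP read by QUANTI-Blue at OD620; % inhibition versus stimulated and unstimulated controls, IC50 by 4-parameter fit.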
(In general: A reporter such as luciferase makes a cellular process visible.)

Chain of TNFα (P01375 77-233 limits assumed): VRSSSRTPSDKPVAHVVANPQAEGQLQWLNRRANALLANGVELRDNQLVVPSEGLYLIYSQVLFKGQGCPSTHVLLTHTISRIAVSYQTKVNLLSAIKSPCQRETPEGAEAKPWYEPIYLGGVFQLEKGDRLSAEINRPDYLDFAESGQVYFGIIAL

For orientation: IC50 means the concentration at which inhibition is half-maximal. Consider `[2H]C([2H])([2H])N1C(=O)c2cccc(OC(F)F)c2[C@H]2C[C@@H]1c1nn3ccc(-c4cnc(C5(N)CC5)cn4)cc3c12` [Example 266], for which the IC50 is less than 25 nM.
With `[2H]C([2H])([2H])N1C(=O)c2cccc(OC(F)F)c2[C@H]2C[C@@H]1c1nn3cc(F)c(-c4cnc([C@]5(N)C[C@@](C)(O)C5)nc4)cc3c12` [Example 267] the figure was less than 25 nM; with `[2H]C([2H])([2H])N1C(=O)c2cccc(OC(F)F)c2[C@H]2C[C@@H]1c1nn3cc(F)c(-c4cnc([C@]5(N)C[C@@](C)(CO)C5)c(F)c4)nc3c12` [Example 268], less than 25 nM.
With `[2H]C([2H])([2H])N1C(=O)c2cccc(OC(F)F)c2[C@H]2C[C@@H]1c1nn3ccc(-c4cnc([C@]5(N)C[C@@](C)(CO)C5)nc4)cc3c12` [Example 269], the IC50 was less than 25 nM.
To `[2H]C([2H])([2H])N1C(=O)c2cccc(OC(F)F)c2[C@H]2C[C@@H]1c1nn3cc(F)c(-c4cnc([C@]5(N)C[C@@](C)(CO)C5)nc4)cc3c12` [Example 270] belongs less than 25 nM.
To `[2H]C([2H])([2H])N1C(=O)c2cccc(OC(F)F)c2[C@H]2C[C@@H]1c1nn3ccc(-c4cnc([C@]5(O)C[C@@](C)(C#N)C5)nc4)nc3c12` [Example 271] belongs less than 25 nM.
Turning to `[2H]C([2H])([2H])N1C(=O)c2cccc(OC(F)F)c2[C@H]2C[C@@H]1c1nn3ccc(-c4cnc([C@]5(O)C[C@](C)(C#N)C5)nc4)nc3c12` [Example 272], the IC50 was less than 25 nM.
With `[2H]C([2H])([2H])N1C(=O)c2cccc(OC(F)F)c2[C@H]2C[C@@H]1c1nn3cnc(-c4cnc([C@]5(O)C[C@](C)(C#N)C5)nc4)cc3c12` [Example 273] the figure was less than 25 nM.
Regarding `[2H]C([2H])([2H])N1C(=O)c2cccc(OC(F)F)c2[C@H]2C[C@@H]1c1nn3cc(F)c(-c4cnc([C@]5(N)C[C@@](C)(CO)C5)nc4)nc3c12` [Example 274], the IC50 is less than 25 nM.
In the case of `Cc1nc(C2(N)CCC2)ncc1-c1ccn2nc3c(c2n1)[C@@H]1C[C@H]3NC(=O)c2cccc(OC(F)F)c21` [Example 275], the IC50 was less than 25 nM.
With `[2H]C([2H])([2H])N1C(=O)c2cccc(OC(F)F)c2[C@H]2C[C@@H]1c1nn3ccc(-c4cnc([C@@H](N)C5CC5)nc4)nc3c12` [Example 276] the figure was 25 to 100 nM.
For the molecule `[2H]C([2H])([2H])N1C(=O)c2cccc(OC(F)F)c2[C@H]2C[C@@H]1c1nn3ccc(-c4cnc([C@H](N)C5CC5)nc4)nc3c12` [Example 277], the IC50 is less than 25 nM.
To `[2H]C([2H])([2H])N1C(=O)c2cccc(OC(F)F)c2[C@H]2C[C@@H]1c1nn3ccc(-c4cnc(C5(O)CN(C)C5)nc4)cc3c12` [Example 278] belongs less than 25 nM; to `[2H]C([2H])([2H])N1C(=O)c2cccc(OC(F)F)c2[C@H]2C[C@@H]1c1nn3ccc(-c4cnc([C@]5(C#N)C[C@@](C)(N)C5)nc4)cc3c12` [Example 279], less than 25 nM; to `[2H]C([2H])([2H])N1C(=O)c2cccc(OC(F)F)c2[C@H]2C[C@@H]1c1nn3ccc(-c4cnc([C@]5(C#N)C[C@](C)(N)C5)nc4)cc3c12` [Example 280], less than 25 nM.
To `[2H]C([2H])([2H])N1C(=O)c2cccc(OC(F)F)c2[C@H]2C[C@@H]1c1nn3ccc(-c4cnc([C@]5(N)C[C@@](C)(O)C5)nc4C)cc3c12` [Example 281] belongs less than 25 nM; to `[2H]C([2H])([2H])N1C(=O)c2ccc(F)c(OC(F)F)c2[C@H]2C[C@@H]1c1nn3ccc(-c4cnc(C5(N)CCC5)nc4)nc3c12` [Example 282], less than 25 nM.
Consider `O=C1N[C@@H]2C[C@H](c3c(OC(F)F)cccc31)c1c2nn2ccc(C3=CCN(C(=O)O[C@H]4C[C@@H](O)C4)CC3)cc12` [Example 283], for which the IC50 was less than 25 nM.
With `[2H]C([2H])([2H])N1C(=O)c2cccc(OC(F)F)c2[C@H]2C[C@@H]1c1nn3cc(F)c(-c4cnc([C@]5(O)C[C@@](C)(N)C5)nc4)cc3c12` [Example 284] the figure was less than 25 nM; with `[2H]C([2H])([2H])N1C(=O)c2cccc(OC(F)F)c2[C@H]2C[C@@H]1c1nn3ccc(-c4cnc([C@]5(N)C[C@@](C)(O)C5)nc4C)nc3c12` [Example 285], less than 25 nM; with `[2H]C([2H])([2H])N1C(=O)c2cccc(OC(F)F)c2[C@H]2C[C@@H]1c1nn3ccc(-c4cnc(C(C)(C)N)nc4)nc3c12` [Example 286], less than 25 nM.
To `[2H]C([2H])([2H])N1C(=O)c2cccc(OC(F)F)c2[C@H]2C[C@@H]1c1nn3cc(F)c(-c4cnc(C(C)(C)N)nc4)nc3c12` [Example 287] belongs less than 25 nM; to `[2H]C([2H])([2H])N1C(=O)c2ccc(F)c(OC(F)F)c2[C@H]2C[C@@H]1c1nn3ccc(-c4cnc([C@]5(N)C[C@@](C)(O)C5)nc4)nc3c12` [Example 288], less than 25 nM; to `[2H]C([2H])([2H])N1C(=O)c2ccc(F)c(OC(F)F)c2[C@H]2C[C@@H]1c1nn3ccc(-c4cnc([C@]5(N)C[C@@](C)(O)C5)c(F)c4)nc3c12` [Example 289], less than 25 nM.
As for `[2H]C([2H])([2H])N1C(=O)c2cccc(OC(F)F)c2[C@H]2C[C@@H]1c1nn3cc(F)c(-c4cnc([C@]5(N)C[C@H](C#N)C5)nc4)cc3c12` [Example 290], the IC50 is less than 25 nM.
Regarding `[2H]C([2H])([2H])N1C(=O)c2cccc(OC(F)F)c2[C@H]2C[C@@H]1c1nn3ccc(-c4cnc(N5CC(C)(N)C5)nc4)cc3c12` [Example 291], the IC50 was less than 25 nM.
To `[2H]C([2H])([2H])N1C(=O)c2cccc(OC(F)F)c2[C@H]2C[C@@H]1c1nn3ccc(-c4cnc([C@]5(C#N)C[C@@](C)(N)C5)c(F)c4)cc3c12` [Example 292] belongs less than 25 nM.
With `[2H]C([2H])([2H])N1C(=O)c2cccc(OC(F)F)c2[C@H]2C[C@@H]1c1nn3ccc(-c4cnc([C@]5(C#N)C[C@](C)(N)C5)c(F)c4)cc3c12` [Example 293] the figure was less than 25 nM; with `[2H]C([2H])([2H])N1C(=O)c2cccc(OC(F)F)c2[C@H]2C[C@@H]1c1nn3cc(F)c(-c4cnc(C(C)(C)N)nc4)cc3c12` [Example 294], less than 25 nM; with `CN1C(=O)c2cccc(OC(F)F)c2[C@H]2C[C@@H]1c1nn3ccc(-c4cnc(C(C)(C)N)nc4)nc3c12` [Example 295], less than 25 nM.
Regarding `[2H]C([2H])([2H])N1C(=O)c2cccc(OC(F)F)c2[C@H]2C[C@@H]1c1nn3cc(C)c(-c4cnc(C(C)(C)N)nc4)nc3c12` [Example 296], the IC50 was less than 25 nM.
To `[2H]C([2H])([2H])N1C(=O)c2ccc(F)c(OC(F)F)c2[C@H]2C[C@@H]1c1nn3ccc(-c4cnc(C(C)(C)N)nc4)nc3c12` [Example 297] belongs less than 25 nM; to `[2H]C([2H])([2H])N1C(=O)c2cccc(OC(F)F)c2[C@H]2C[C@@H]1c1nn3cnc(-c4cnc(C(C)(C)N)nc4)cc3c12` [Example 298], less than 25 nM.
For `CN1C(=O)c2cccc(C(F)F)c2[C@H]2C[C@@H]1c1nn3ccc(-c4cnc(C5(N)CCC5)nc4)cc3c12` [Example 299], the IC50 was less than 25 nM.
Take `[2H]C([2H])([2H])N1C(=O)c2cccc(OC(F)F)c2[C@H]2C[C@@H]1c1nn3cc(C)c(-c4cnc(C(C)(C)N)nc4)cc3c12` [Example 300]: the IC50 is less than 25 nM.
`[2H]C([2H])([2H])N1C(=O)c2cccc(C#N)c2[C@H]2C[C@@H]1c1nn3ccc(-c4cnc([C@]5(N)C[C@@](C)(C#N)C5)nc4)nc3c12` [Example 301, (7R,14R)-12-(2-((1s,3S)-1-amino-3-cyano-3-methylcyclobutyl)pyrimidin-5-yl)-6-(methyl-d3)-5-oxo-5,6,7,14-tetrahydro-7,14-methanobenzo[c]pyrimido[1′,2′:1,5]pyrazolo[4,3-f]azocine-1-carbonitrile]: the IC50 was less than 25 nM.
`[2H]C([2H])([2H])N1C(=O)c2cccc(C)c2[C@H]2C[C@@H]1c1nn3ccc(-c4cnc(C5(N)CCC5)nc4)cc3c12` [Example 302, (7R,14R)-12-(2-(1-aminocyclobutyl)pyrimidin-5-yl)-1-methyl-6-(methyl-d3)-6,7-dihydro-7,14-methanobenzo[c]pyrido[1′,2′:1,5]pyrazolo[4,3-f]azocin-5 (14H)-one]: the IC50 lay in the range of 25 to 100 nM.
As for `CN1C(=O)c2cccc(C#N)c2[C@H]2C[C@@H]1c1nn3ccc(-c4ccc(P(C)(C)=O)nc4)cc3c12` [Example 303], the IC50 was less than 25 nM.
With `CN1C(=O)c2cccc(C3CC3)c2[C@H]2C[C@@H]1c1nn3ccc(-c4ccc(P(C)(C)=O)nc4)cc3c12` [Example 304] the figure was less than 25 nM; with `C#Cc1cccc2c1[C@H]1C[C@H](c3nn4ccc(-c5cnc([C@]6(O)C[C@@](C)(O)C6)nc5)cc4c31)N(C)C2=O` [Example 305], less than 25 nM; with `[2H]C([2H])([2H])N1C(=O)c2cccc(C#N)c2[C@H]2C[C@@H]1c1nn3ccc(-c4cnc(C5(N)CCC5)nc4)cc3c12` [Example 306], less than 25 nM.
In the case of `[2H]C([2H])([2H])N1C(=O)c2cccc(C#N)c2[C@H]2C[C@@H]1c1nn3cc(F)c(-c4cnc(C5(N)CCC5)nc4)cc3c12` [Example 307], the half-maximal inhibitory concentration (IC50) was in the range of 25 to 100 nM.
To `[2H]C([2H])([2H])N1C(=O)c2cccc(C#N)c2[C@H]2C[C@@H]1c1nn3ccc(-c4cnc([C@]5(N)C[C@@](C)(C#N)C5)nc4)cc3c12` [Example 308] belongs less than 25 nM.
With `[2H]C([2H])([2H])N1C(=O)c2cccc(C#N)c2[C@H]2C[C@@H]1c1nn3ccc(-c4cnc([C@]5(N)C[C@@](C)(O)C5)c(F)c4)cc3c12` [Example 309] the figure was less than 25 nM; with `[2H]C([2H])([2H])N1C(=O)c2cccc(C#N)c2[C@H]2C[C@@H]1c1nn3ccc(-c4cnc(C5(N)CCC5)nc4)nc3c12` [Example 310], 25 to 100 nM; with `[2H]C([2H])([2H])N1C(=O)c2cccc(C#N)c2[C@H]2C[C@@H]1c1nn3cc(F)c(-c4cnc([C@]5(N)C[C@@](C)(C#N)C5)nc4)nc3c12` [Example 311], 25 to 100 nM.
